This assay concerns HCV GT1. In words: Randomized, double-blind, placebo-controlled phase II study of DEB025 plus SOC (peg-IFNα2a plus RBV); virologic response by HCV RNA. Format: in vivo, patients. The method, then: This is an international, multicentre, randomized, double-blind, placebo-controlled, 4-arm, parallel-group phase II study comparing therapy with three doses of DEB025 (600 mg QD, 800 mg QD and 400 mg BID) plus SOC (peg-IFNα2a once weekly plus RBV BID) versus triple therapy with placebo matching DEB025 plus SOC in chronic HCV GT1 patients who were non-responders to prior SOC treatment, or who have relapsed after SOC treatment.
Approximately 344 patients will be randomized into one of 4 treatment arms (A, B, C (C1/C2) and D) in a 1:1:1:1 ratio. C1 and C2 patients will be randomized in a 1:1 ratio within arm C.
The randomization will be stratified by response status to previous treatment (non-responders/relapsers), BMI (<25 kg/m2 or ≧25 kg/m2) and IL28B polymorphism (CC or CT/TT) at screening.
The ratio non-responders and relapsers should be kept at 50% (172 patients) of the study population. An international, multicentre, randomized, double-blind, placebo-controlled, 4-arm, parallel-group phase II study comparing triple therapy with three doses of alisporivir (400 mg, 600 mg or 800 mg)+standard of care (SOC) versus triple therapy with placebo matching alisporivir plus SOC in […] chronic HCV GT1 patients who were non-responders to prior SOC treatment, or relapsers after SOC treatment is provided.
Patients are randomized into one of 4 treatment arms as described below in a 1:1:1:1 ratio. The randomization will be stratified by response status to previous treatment (non-responders/relapsers), BMI (<25 kg/m2 or ≧25 kg/m2) and IL28B polymorphism (CC or CT/TT) at screening. The ratio non-responders and relapsers should be kept at 50% (172 patients) of the study population.
• Alisporivir/Placebo 3 capsules of 200 mg (600 mg) alisporivir 2×/day (BID) orally for 1 week (loading dose) followed by 3 capsules of 200 mg (600 mg) alisporivir once per day (QD) plus 1 capsule of placebo QD for 47 weeks. Only in week 17 (dummy loading) patients receive 3 capsules of 200 mg (600 mg) alisporivir in the morning and 3 capsules of placebo in the evening. • Peg-IFNα2a 180 μg subcutaneously (s.c.) once weekly for 48 weeks • Ribavirin 1000 mg/day (<75 kg) or 1200 mg/day (≧75 kg) orally in two divided doses for 48 weeks
• alisporivir/Placebo 3 capsules of 200 mg (600 mg) alisporivir 2×/day orally for 1 week (loading dose) followed by 4 capsules alisporivir (800 mg) QD for 47 weeks. Only in week 17 (dummy loading) patients receive 3 capsules of 200 mg (600 mg) alisporivir in the morning and 1 capsule of 200 mg alisporivir plus 2 capsules of placebo in the evening. • Peg-IFNα2a 180 μg subcutaneously (s.c.) once weekly for 48 weeks • Ribavirin 1000 mg/day (<75 kg) or 1200 mg/day (≧75 kg) orally in two divided doses for 48 weeks Treatment C1 (will change to active treatment if cEVR not reached=arm C1A) • Placebo 3 capsules of placebo BID orally for 1 week (loading dose) followed by 4 capsules placebo QD for 47 weeks. […]
• Placebo alisporivir 1 capsule of placebo QD (in the morning) orally for 48 weeks 2 capsules of 200 mg (400 mg) alisporivir 2×/day orally for 48 weeks
• 180 μg s.c. once weekly for 48 weeks • Ribavirin 1000 mg/day (<75 kg) or 1200 mg/day (≧75 kg) orally in two divided doses for 48 weeks Treatment C2 (will change to active treatment if cEVR not reached=arm C2A) • DEB025 placebo 3 capsules of placebo orally in the morning and 2 capsules of placebo in the evening for 48 weeks. • Peg-IFNα2a 180 μg s.c. once weekly for 48 weeks • Ribavirin 1000 mg/day (<75 kg) or 1200 mg/day (≧75 kg) orally in two divided doses for 48 weeks
• Placebo 3 capsules of placebo orally as morning dose and 2 capsules of placebo as evening dose for 16 weeks. […]

Setting [1] is: Arm A, DEB 600 QD plus peg-IFNα2a/RBV, N = 81.
Setting [2] is: Arm B, DEB 800 QD plus peg-IFNα2a/RBV, N = 84.
[3] abbreviates: Arm D, DEB 400 BID plus peg-IFNα2a/RBV, N = 78.
Setting [4] is: DEB 400 BID arm plus SOC, Week 12.

This note sets out measurements from patent US20150104415A1, “Treatments of Hepatitis C virus infection” (DEBIOPHARM INTERNATIONAL SA, priority 2011, published 2015).

With `C/C=C/C[C@@H](C)[C@@H](O)[C@H]1C(=O)N[C@@H](CC)C(=O)N(C)[C@H](C)C(=O)N(CC)[C@@H](C(C)C)C(=O)N[C@@H](C(C)C)C(=O)N(C)[C@@H](CC(C)C)C(=O)N[C@@H](C)C(=O)N[C@H](C)C(=O)N(C)[C@@H](CC(C)C)C(=O)N(C)[C@@H](CC(C)C)C(=O)N(C)[C@@H](C(C)C)C(=O)N1C` [DEB025, alisporivir], the “RVR (rapid virologic response): patients with HCV RNA < LOQ (25 IU/mL) after 4 weeks of treatment” value (“RVR (rapid virologic response): patients” below) (Arm A, DEB 600 QD (600 mg BID 1 week loading) plus peg-IFNα2a/RBV, N = 81, GT1 relapsers/non-responders) is on record as 19 (23.5) n (%). Also, under setting [1], the “EVR: HCV RNA decrease >= 2 log10 from baseline or < LOQ (25 IU/mL) after 12 weeks” value (from here on “EVR: HCV RNA decrease >= 2 log10”) is 64 (79.0) n (%); the “cEVR (complete early virologic response, primary endpoint): HCV RNA < LOQ (25 IU/mL) after 12 weeks” value was 36 (44.4) n (%); the “pEVR (partial early virologic response): HCV RNA decrease >= 2 log10 from baseline and > LOQ (25 IU/mL) after 12 weeks” value is given as 28 (34.6) n (%). Also, the “RVR (rapid virologic response): patients” value (Arm B, DEB 800 QD (600 mg BID 1 week loading) plus peg-IFNα2a/RBV, N = 84) is 18 (21.4) n (%). Under setting [2], the “EVR: HCV RNA decrease >= 2 log10” value was 72 (85.7) n (%); the “cEVR (complete early virologic response, primary endpoint): HCV RNA < LOQ (25 IU/mL) after 12 weeks” value is recorded as 48 (57.1) n (%); the “pEVR (partial early virologic response): HCV RNA decrease >= 2 log10 from baseline and > LOQ (25 IU/mL) after 12 weeks” value is 24 (28.6) n (%). In addition, under setting [3], the “EVR: HCV RNA decrease >= 2 log10” value is given as 63 (80.8) n (%); the “RVR (rapid virologic response): patients” value is 29 (37.2) n (%); the “cEVR (complete early virologic response, primary endpoint): HCV RNA < LOQ (25 IU/mL) after 12 weeks” value is on record as 55 (70.5) n (%); the “pEVR (partial early virologic response): HCV RNA decrease >= 2 log10 from baseline and > LOQ (25 IU/mL) after 12 weeks” value was 8 (10.3) n (%). Further, where the note is “DEB 400 BID arm plus SOC, Week 4”, the “proportion achieving RVR” value is 37.2%. Moreover, under setting [4], the “proportion achieving EVR” value was 80.8% and the “proportion achieving cEVR” value is recorded as 70.5%. Further, under “Week 4, all the DEB025 treatment arms (600 QD, 800 QD, 400 BID) plus SOC”, the “patients achieved RVR” value is given as greater than 20%. The “patients achieved EVR” value (Week 12, all the DEB025 treatment arms (600 QD, 800 QD, 400 BID) plus SOC) was no less than 79%.
